Reference: patent US20240270762A1, “PENICILLIN-BINDING PROTEIN INHIBITORS” (priority 2021, published 2024)
Values after ≈ are worked out from the molar mass of the structure shown. Where two headings read alike, the source gives them in different places.

Assays:
[1] = target: T1, PBP3 from Acinetobacter baumannii (ATCC 19606) (Acinetobacter baumannii, UniProt A0ABX6CK25); assay: Bocillin-FL fluorescence polarization competition binding, A. baumannii PBP3; conditions: fluorescence polarization competition binding assay using Bocillin-FL; read-out: A. baumannii PBP3 Potency
T1 sequence (A0ABX6CK25 64-610): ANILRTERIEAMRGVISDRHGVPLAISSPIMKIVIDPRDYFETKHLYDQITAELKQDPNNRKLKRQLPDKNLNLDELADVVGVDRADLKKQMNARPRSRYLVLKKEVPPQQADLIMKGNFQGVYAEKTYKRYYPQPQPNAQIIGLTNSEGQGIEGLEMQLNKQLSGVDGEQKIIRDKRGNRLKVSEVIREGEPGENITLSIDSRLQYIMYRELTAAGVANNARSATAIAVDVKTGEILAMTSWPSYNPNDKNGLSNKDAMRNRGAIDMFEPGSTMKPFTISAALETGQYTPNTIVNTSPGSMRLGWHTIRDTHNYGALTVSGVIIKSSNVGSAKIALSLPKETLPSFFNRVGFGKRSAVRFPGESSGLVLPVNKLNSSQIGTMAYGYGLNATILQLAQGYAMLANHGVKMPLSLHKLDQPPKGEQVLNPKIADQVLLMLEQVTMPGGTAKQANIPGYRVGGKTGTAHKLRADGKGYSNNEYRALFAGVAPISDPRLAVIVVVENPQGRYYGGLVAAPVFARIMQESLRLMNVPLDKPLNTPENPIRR
Procedure, shortened: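 Purified PBPs pre-incubated with inhibitor (E. coli PBP3 1.5 μM, 30 min; P. aeruginosa PBP3 0.75 μM, A. baumannii PBP1a 1 μM and PBP3 0.2 μM, 15 min), then Bocillin-FL 0.1 μM (0.05 μM for PBP1a) added; FP read up to 60 min. EC50 = concentration halving bound Bocillin-FL.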

[2] = system: P. aeruginosa CDC-0095; assay: microbe, parasite or virus in culture; assay type: cell-based; conditions: Pseudomonas aeruginosa, CDC0095, read-out: Minimum inhibitory concentration, P. aeruginosa CDC-0095
[3] = system: A. baumannii 1258916; assay: microbe, parasite or virus in culture; assay type: cell-based, Acinetobacter baumannii; conditions: Acinetobacter baumannii, 1258916, read-out: MIC, A. baumannii 1258916
[4] = system: A. baumannii CDC-0036; assay: microbe, parasite or virus in culture; assay type: cell-based; conditions: Acinetobacter baumannii, CDC0036, read-out: MIC, A. baumannii CDC-0036
[5] = system: N. gonorrhoeae FA1090; assay: Liquid broth MIC in Fastidious broth; conditions: Neisseria gonorrhoeae
[6] = system: N. gonorrhoeae WHO G; assay: Liquid broth MIC in Fastidious broth; conditions: Neisseria gonorrhoeae
[7] = system: N. gonorrhoeae WHO M; assay: Liquid broth MIC in Fastidious broth; conditions: Neisseria gonorrhoeae
[8] = system: N. gonorrhoeae WHO K; assay: Liquid broth MIC in Fastidious broth; conditions: Neisseria gonorrhoeae
[9] = system: N. gonorrhoeae WHO X; assay: Liquid broth MIC in Fastidious broth; conditions: Neisseria gonorrhoeae
[10] = system: N. gonorrhoeae WHO Z; assay: Liquid broth MIC in Fastidious broth; conditions: Neisseria gonorrhoeae
[11] = system: N. gonorrhoeae WHO Q; assay: Liquid broth MIC in Fastidious broth; conditions: Neisseria gonorrhoeae
Method: Liquid broth-based assays were used for antibacterial testing of PBP inhibitors in Neisseria gonorrhoeae. Briefly, cryo-preserved bacterial cultures of clinical strains were streaked for isolation on Chocolate Agar (72 g/L (2×) GC Agar Base (BD #228950) and 2% (2×) Hemoglobin was autoclaved at 121° C. for 20 minutes to sterilize. Once cooled to ˜50° C. the 2×GC Agar Base and 2× Hemoglobin solutions are combined and 1% IsoVitaleX Enrichment (BD #211876) was added to the solution). Strains were incubated at 36° C. and 5% CO2 to allow growth of colonies, 24 hours before inoculum preparation. 2-fold serial dilutions of test compounds were conducted in a 96 well plate with a final volume of 75 μL per well at 2-fold the final desired concentration in Fastidious broth (Remel #R07664). For preparation of assay inoculum, a direct suspension was prepared by aseptically swabbing 10-15 colonies from agar plates into culture tubes containing 2 mL of fresh sterile saline. After the dilution plates were set up, direct suspensions were then diluted in a cuvette containing sterile saline and the optical density was measured at 600 nm. Inocula were diluted such that 75 μL of this culture in Fastidious broth results in a starting bacterial concentration of 5×10^5 CFU/mL when added to the dilution plates. The plates were incubated for ˜24 hours at 36° C. and 5% CO2.

[12] = FA1090, read-out: Minimum Inhibitory Concentration, FA 1090
[13] = read-out: Minimum Inhibitory Concentration, WHO G
[14] = read-out: Minimum Inhibitory Concentration, WHO M
[15] = read-out: Minimum Inhibitory Concentration, WHO K
[16] = read-out: Minimum Inhibitory Concentration, WHO X
[17] = read-out: Minimum Inhibitory Concentration, WHO Z
[18] = read-out: Minimum Inhibitory Concentration, WHO Q

Compound	IC50 [1]	MIC [2]	MIC [3]	MIC [4]	MIC [5, 12]	MIC [6, 13]	MIC [7, 14]	MIC [8, 15]	MIC [9, 16]	MIC [10, 17]	MIC [11, 18]	MIC ([5]; FA1090, read-out: Minimum Inhibitory Concentration (MIC), N. gonorrhoeae FA 1090)	MIC ([6]; read-out: Minimum Inhibitory Concentration (MIC), N. gonorrhoeae WHO G)	MIC ([7]; read-out: Minimum Inhibitory Concentration (MIC), N. gonorrhoeae WHO M)	MIC ([8]; read-out: Minimum Inhibitory Concentration (MIC), N. gonorrhoeae WHO K)	MIC ([9]; read-out: Minimum Inhibitory Concentration (MIC), N. gonorrhoeae WHO X)	MIC ([10]; read-out: Minimum Inhibitory Concentration (MIC), N. gonorrhoeae WHO Z)	MIC ([11]; read-out: Minimum Inhibitory Concentration (MIC), N. gonorrhoeae WHO Q)
O=C(NCCCN1CCN(C(=O)N[C@@H](C(=O)N[C@H]2Cc3ccc(F)c(C(=O)O)c3OB2O)c2cc(F)c(O)c(O)c2Cl)C1=O)c1cccc(O)c1 [Example 255, (R)-3-((R)-2-(2-chloro-5-fluoro-3,4-dihydroxyphenyl)-2-(3-(3-(3-hydroxybenzamido)propyl)-2-oxoimidazolidine-1-carboxamido)acetamido)-7-fluoro-2-hydroxy-3,4-dihydro-2H-benzo[e][1,2]oxaborinine-8-carboxylic acid]	< 10 µM	2 to 4 µg/mL (≈ 2.73 to 5.47 µM)	< 1 µg/mL	< 1 µg/mL	1 to 2 µg/mL (≈ 1.37 to 2.73 µM)	4 to 8 µg/mL (≈ 5.47 to 10.9 µM)	4 to 8 µg/mL (≈ 5.47 to 10.9 µM)	> 64 µg/mL	> 64 µg/mL	16 to 32 µg/mL (≈ 21.9 to 43.7 µM)	16 to 32 µg/mL (≈ 21.9 to 43.7 µM)							
O=C(NCCCS(=O)(=O)N1CCN(C(=O)NC(C(=O)N[C@H]2Cc3ccc(F)c(C(=O)O)c3OB2O)c2cc(F)c(O)c(O)c2Cl)C1=O)c1ccc(O)cc1 (stereo partly drawn) [Example 269, (3R)-3-(2-(2-chloro-5-fluoro-3,4-dihydroxyphenyl)-2-(3-((3-(4-hydroxybenzamido)propyl)sulfonyl)-2-oxoimidazolidine-1-carboxamido)acetamido)-7-fluoro-2-hydroxy-3,4-dihydro-2H-benzo[e][1,2]oxaborinine-8-carboxylic acid]	< 10 µM	8 to 16 µg/mL (≈ 10.1 to 20.1 µM)	2 to 4 µg/mL (≈ 2.51 to 5.03 µM)	8 to 16 µg/mL (≈ 10.1 to 20.1 µM)	4 to 8 µg/mL (≈ 5.03 to 10.1 µM)	16 to 32 µg/mL (≈ 20.1 to 40.2 µM)	4 to 8 µg/mL (≈ 5.03 to 10.1 µM)	> 64 µg/mL	> 64 µg/mL	16 to 32 µg/mL (≈ 20.1 to 40.2 µM)	16 to 32 µg/mL (≈ 20.1 to 40.2 µM)							
O=C(NCCN1CCN(C(=O)NC(C(=O)N[C@H]2Cc3ccc(F)c(C(=O)O)c3OB2O)c2cc(F)c(O)c(O)c2Cl)C(=O)C1=O)c1cccnc1 (stereo partly drawn) [Example 217, (3R)-3-(2-(2-chloro-5-fluoro-3,4-dihydroxyphenyl)-2-(4-(2-(nicotinamido)ethyl)-2,3-dioxopiperazine-1-carboxamido)acetamido)-7-fluoro-2-hydroxy-3,4-dihydro-2H-benzo[e][1,2]oxaborinine-8-carboxylic acid]	< 10 µM	2 to 4 µg/mL (≈ 2.74 to 5.47 µM)	2 to 4 µg/mL (≈ 2.74 to 5.47 µM)	8 to 16 µg/mL (≈ 10.9 to 21.9 µM)								1 to 2 µg/mL (≈ 1.37 to 2.74 µM)	16 to 32 µg/mL (≈ 21.9 to 43.8 µM)	16 to 32 µg/mL (≈ 21.9 to 43.8 µM)	> 64 µg/mL	> 64 µg/mL	16 to 32 µg/mL (≈ 21.9 to 43.8 µM)	> 64 µg/mL
O=C(NCCCN1CCN(C(=O)NC(C(=O)N[C@H]2Cc3ccc(F)c(C(=O)O)c3OB2O)c2cc(F)c(O)c(O)c2Cl)C1=O)Nc1cccnc1 (stereo partly drawn) [Example 259, (3R)-3-(2-(2-chloro-5-fluoro-3,4-dihydroxyphenyl)-2-(2-oxo-3-(3-(3-(pyridin-3-yl)ureido)propyl)imidazolidine-1-carboxamido)acetamido)-7-fluoro-2-hydroxy-3,4-dihydro-2H-benzo[e][1,2]oxaborinine-8-carboxylic acid]	< 10 µM	2 to 4 µg/mL (≈ 2.73 to 5.47 µM)	< 1 µg/mL	< 1 µg/mL	1 to 2 µg/mL (≈ 1.37 to 2.73 µM)	16 to 32 µg/mL (≈ 21.9 to 43.7 µM)	4 to 8 µg/mL (≈ 5.47 to 10.9 µM)	> 64 µg/mL	> 64 µg/mL	16 to 32 µg/mL (≈ 21.9 to 43.7 µM)	16 to 32 µg/mL (≈ 21.9 to 43.7 µM)							
O=C(NCCCN1CCN(C(=O)N[C@H](C(=O)N[C@H]2Cc3ccc(F)c(C(=O)O)c3OB2O)c2cc(F)c(O)c(O)c2Cl)C1=O)c1ccccc1 [Example 252, (R)-3-((S)-2-(3-(3-benzamidopropyl)-2-oxoimidazolidine-1-carboxamido)-2-(2-chloro-5-fluoro-3,4-dihydroxyphenyl)acetamido)-7-fluoro-2-hydroxy-3,4-dihydro-2H-benzo[e][1,2]oxaborinine-8-carboxylic acid]	50 to 250 µM	> 128 µg/mL	> 128 µg/mL	> 128 µg/mL	> 64 µg/mL	> 64 µg/mL	> 64 µg/mL	> 64 µg/mL	> 64 µg/mL	> 64 µg/mL	> 64 µg/mL							
